Blank lines part the entries; values can stand above or below the compound they belong to. Activity calls are given as the source filed them.
Key:
[1] = target: T1, Neuropeptide Y receptor type 1 (Homo sapiens, UniProt P25929); assay: Fluorescence-based counterscreen for agonists of NPY-Y2: cell-based high-throughput dose response assay for agonists of NPY-Y1.; assay type: functional
T1 sequence (P25929 whole entry): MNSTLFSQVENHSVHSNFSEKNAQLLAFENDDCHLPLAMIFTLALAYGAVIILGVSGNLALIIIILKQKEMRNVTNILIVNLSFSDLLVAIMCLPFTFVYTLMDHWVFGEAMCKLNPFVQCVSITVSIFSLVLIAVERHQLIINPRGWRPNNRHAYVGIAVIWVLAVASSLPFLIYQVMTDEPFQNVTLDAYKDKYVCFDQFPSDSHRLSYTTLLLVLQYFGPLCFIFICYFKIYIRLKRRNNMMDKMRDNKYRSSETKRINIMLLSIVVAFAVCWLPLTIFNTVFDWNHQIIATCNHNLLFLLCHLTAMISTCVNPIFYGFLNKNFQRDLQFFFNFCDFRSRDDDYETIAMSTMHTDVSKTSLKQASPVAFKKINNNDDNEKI

[2] = test system: HEK293; assay: Fluorescence-based counterscreen for potentiators or agonists of NPY-Y2: cell-based high-throughput dose response assay to identify inhibitors of cyclic nucleotide gated ion channel (CNGC) activity. In this assay, the parental HEK293 cell line transfected with a cyclic-nucleotide gated ion channel (CNGC)-based cAMP sensor is used to measure inhibition of isoproterenol-induced CNGC activity by test compound.; assay type: functional; settings: Homo sapiens;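 further: stimulus is 1 µM isoproterenol at EC100 plus PDE inhibitor Ro 20-1724 at 25 µM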
[3] = target: T2, Neuropeptide Y receptor type 2 (Homo sapiens, UniProt P49146); assay: Fluorescence-based cell-based high-throughput dose response assay for agonists of NPY-Y2. [Related pubchem assays: 1703 (Screening assay (CNGC inhibitors).), 1359 (Screening assay (NPY-Y2 potentiators or agonists).), 1304 (Screening assay (NPY-Y1 potentiators or agonists).), 1710 (Screening assay (NPY-Y2 agonists).), 1791 (Summary AID.)]; assay type: functional
T2 sequence (P49146 whole entry): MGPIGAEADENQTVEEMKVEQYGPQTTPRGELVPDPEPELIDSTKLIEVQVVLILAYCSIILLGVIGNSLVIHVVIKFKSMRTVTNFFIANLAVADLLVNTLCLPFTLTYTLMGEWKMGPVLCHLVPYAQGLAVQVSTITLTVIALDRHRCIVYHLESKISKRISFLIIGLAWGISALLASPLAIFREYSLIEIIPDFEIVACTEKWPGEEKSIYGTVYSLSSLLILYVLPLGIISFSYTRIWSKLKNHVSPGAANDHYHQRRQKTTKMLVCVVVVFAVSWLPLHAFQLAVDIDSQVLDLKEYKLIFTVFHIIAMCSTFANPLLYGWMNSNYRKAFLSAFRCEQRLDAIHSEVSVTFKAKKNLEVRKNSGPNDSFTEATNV

[4] = target: T3, Leucine aminopeptidase (Plasmodium falciparum 3D7, UniProt Q8IL11); assay: P. falciparum M17LAP inhibitors, primary screen, biochemical, fluorogenic H-Leu-NHMec substrate, 1536-well (AID 1619); assay type: functional
T3 sequence (Q8IL11 whole entry): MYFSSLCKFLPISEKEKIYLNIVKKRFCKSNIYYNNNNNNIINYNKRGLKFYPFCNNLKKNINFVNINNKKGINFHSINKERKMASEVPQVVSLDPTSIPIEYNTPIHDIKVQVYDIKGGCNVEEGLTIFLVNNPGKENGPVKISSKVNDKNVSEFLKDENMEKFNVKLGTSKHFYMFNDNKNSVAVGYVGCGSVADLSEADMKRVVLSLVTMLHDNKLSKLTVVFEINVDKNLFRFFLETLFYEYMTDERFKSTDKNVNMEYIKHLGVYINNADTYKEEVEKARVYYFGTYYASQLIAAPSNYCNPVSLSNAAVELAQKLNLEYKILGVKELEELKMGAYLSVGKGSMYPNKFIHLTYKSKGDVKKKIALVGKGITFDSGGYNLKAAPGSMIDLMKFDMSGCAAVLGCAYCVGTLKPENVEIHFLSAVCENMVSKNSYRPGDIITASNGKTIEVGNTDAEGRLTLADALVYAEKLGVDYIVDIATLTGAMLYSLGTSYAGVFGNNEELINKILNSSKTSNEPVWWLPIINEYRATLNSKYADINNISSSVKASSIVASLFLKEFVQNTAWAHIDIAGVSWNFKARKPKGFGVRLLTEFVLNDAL

[5] = mitochondrial function rescue without frataxin homolog – Friedreich's ataxia, plus single-dose screen, dose response (AID 1465); assay type: functional;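 further: yeast depleted of Yfh1p frataxin homolog grown on glycerol needing respiration; WST-1 tetrazolium dye reduction as measure of cellular dehydrogenase metabolic activity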
[6] = target: Lysosomal acid glucosylceramidase (Homo sapiens, UniProt P04062); assay: Dose response cell-based high throughput screening assay to identify enhancers of beta-glucosidase activity. [Related pubchem assays: 784 ]; assay type: functional
[7] = target: Cytochrome P450 2D6 (Homo sapiens, UniProt P10635); assay: qHTS Assay for Inhibitors and Substrates of Cytochrome P450 2D6. [Related pubchem assays: 410 ]; assay type: ADME; settings: read-out: Potency
[8] = test system: INS1; assay: INS-1E survival protection against cytokine death – cell-based, luminescence, retest, dose response (AID 449756); assay type: functional; settings: Rattus norvegicus;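 further: cell death triggered by IL-1 beta plus TNF-alpha plus IFN-gamma mixture; protective hits raise ATP signal compared with cytokine alone wells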
[9] = viability of uninfected HEp-2 cells – cell-based, HTS, cytotoxicity control for RSV inhibitor project, dose response (AID 2410); assay type: functional; settings: human respiratory syncytial virus
[10] = NIH3T3 cell viability loss – ATP luminescence, mouse fibroblasts, counter-screen, dose response (AID 2010); assay type: functional, cell-based;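 further: cells exposed to compound for about 90 hours before reading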
[11] = target: T4, Voltage-gated N-type calcium channel alpha-1B subunit/Amyloid beta A4 precursor protein-binding family A member 1 (Homo sapiens, UniProt Q00975+Q02410); assay type: protein assay
[12] = target: Heat shock protein HSP 90-alpha (Homo sapiens, UniProt P07900); assay type: functional, organism-based
[13] = Trypanosoma cruzi growth suppression in host cells – NIH3T3 host cells, beta-gal luminescence, confirmation (AID 2044); assay type: functional, cell-based;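 further: intracellular parasites grown in NIH/3T3 mouse fibroblasts as host cells; luminescent beta-galactosidase reporter signal from transgenic T. cruzi replicating inside host cells; inhibitors lower the luminescence signal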
[14] = target: T4, Voltage-gated N-type calcium channel alpha-1B subunit/Amyloid beta A4 precursor protein-binding family A member 1; assay type: protein assay; remark: listed apart in the source
[15] = test system: HeLa; assay: Cytotoxicity counterscreen assay for transcriptional activators of heat shock protein 70 (Hsp70). [Related pubchem assays: 1203, 1252 ]; assay type: functional; settings: Homo sapiens;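 further: cells exposed to compound for 16 hours before readout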
[16] = target: Eukaryotic translation initiation factor 4H (Homo sapiens, UniProt Q15056); assay: eIF4H binding inhibition – biochemical, uHTS, fluorescence polarization, translation initiation inhibitor project, primary screen (AID 2012)
[17] = target: Polyadenylate-binding protein 1 (Homo sapiens, UniProt P11940); assay: blockers of PABP interaction with poly(A) – biochemical, fluorescence polarization, […] (AID 2014)
Polyadenylate-binding protein 1, sequence (P11940 whole entry): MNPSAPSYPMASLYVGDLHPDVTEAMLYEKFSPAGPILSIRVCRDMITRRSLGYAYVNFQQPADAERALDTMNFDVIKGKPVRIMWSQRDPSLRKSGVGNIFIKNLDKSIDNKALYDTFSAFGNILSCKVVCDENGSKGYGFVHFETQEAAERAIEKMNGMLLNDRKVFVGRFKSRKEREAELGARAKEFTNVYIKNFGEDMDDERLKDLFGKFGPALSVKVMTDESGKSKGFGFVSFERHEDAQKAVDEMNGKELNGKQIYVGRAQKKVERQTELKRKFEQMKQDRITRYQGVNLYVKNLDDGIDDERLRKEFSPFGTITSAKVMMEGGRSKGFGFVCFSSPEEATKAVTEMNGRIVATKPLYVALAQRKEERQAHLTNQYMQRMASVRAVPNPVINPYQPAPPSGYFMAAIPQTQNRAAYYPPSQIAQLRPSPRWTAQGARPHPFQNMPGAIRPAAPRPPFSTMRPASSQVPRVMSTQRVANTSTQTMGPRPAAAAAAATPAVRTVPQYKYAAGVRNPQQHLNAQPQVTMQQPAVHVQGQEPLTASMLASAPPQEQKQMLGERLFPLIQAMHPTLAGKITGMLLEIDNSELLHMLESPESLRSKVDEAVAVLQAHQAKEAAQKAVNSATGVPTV

T4 sequence (Q00975 whole entry): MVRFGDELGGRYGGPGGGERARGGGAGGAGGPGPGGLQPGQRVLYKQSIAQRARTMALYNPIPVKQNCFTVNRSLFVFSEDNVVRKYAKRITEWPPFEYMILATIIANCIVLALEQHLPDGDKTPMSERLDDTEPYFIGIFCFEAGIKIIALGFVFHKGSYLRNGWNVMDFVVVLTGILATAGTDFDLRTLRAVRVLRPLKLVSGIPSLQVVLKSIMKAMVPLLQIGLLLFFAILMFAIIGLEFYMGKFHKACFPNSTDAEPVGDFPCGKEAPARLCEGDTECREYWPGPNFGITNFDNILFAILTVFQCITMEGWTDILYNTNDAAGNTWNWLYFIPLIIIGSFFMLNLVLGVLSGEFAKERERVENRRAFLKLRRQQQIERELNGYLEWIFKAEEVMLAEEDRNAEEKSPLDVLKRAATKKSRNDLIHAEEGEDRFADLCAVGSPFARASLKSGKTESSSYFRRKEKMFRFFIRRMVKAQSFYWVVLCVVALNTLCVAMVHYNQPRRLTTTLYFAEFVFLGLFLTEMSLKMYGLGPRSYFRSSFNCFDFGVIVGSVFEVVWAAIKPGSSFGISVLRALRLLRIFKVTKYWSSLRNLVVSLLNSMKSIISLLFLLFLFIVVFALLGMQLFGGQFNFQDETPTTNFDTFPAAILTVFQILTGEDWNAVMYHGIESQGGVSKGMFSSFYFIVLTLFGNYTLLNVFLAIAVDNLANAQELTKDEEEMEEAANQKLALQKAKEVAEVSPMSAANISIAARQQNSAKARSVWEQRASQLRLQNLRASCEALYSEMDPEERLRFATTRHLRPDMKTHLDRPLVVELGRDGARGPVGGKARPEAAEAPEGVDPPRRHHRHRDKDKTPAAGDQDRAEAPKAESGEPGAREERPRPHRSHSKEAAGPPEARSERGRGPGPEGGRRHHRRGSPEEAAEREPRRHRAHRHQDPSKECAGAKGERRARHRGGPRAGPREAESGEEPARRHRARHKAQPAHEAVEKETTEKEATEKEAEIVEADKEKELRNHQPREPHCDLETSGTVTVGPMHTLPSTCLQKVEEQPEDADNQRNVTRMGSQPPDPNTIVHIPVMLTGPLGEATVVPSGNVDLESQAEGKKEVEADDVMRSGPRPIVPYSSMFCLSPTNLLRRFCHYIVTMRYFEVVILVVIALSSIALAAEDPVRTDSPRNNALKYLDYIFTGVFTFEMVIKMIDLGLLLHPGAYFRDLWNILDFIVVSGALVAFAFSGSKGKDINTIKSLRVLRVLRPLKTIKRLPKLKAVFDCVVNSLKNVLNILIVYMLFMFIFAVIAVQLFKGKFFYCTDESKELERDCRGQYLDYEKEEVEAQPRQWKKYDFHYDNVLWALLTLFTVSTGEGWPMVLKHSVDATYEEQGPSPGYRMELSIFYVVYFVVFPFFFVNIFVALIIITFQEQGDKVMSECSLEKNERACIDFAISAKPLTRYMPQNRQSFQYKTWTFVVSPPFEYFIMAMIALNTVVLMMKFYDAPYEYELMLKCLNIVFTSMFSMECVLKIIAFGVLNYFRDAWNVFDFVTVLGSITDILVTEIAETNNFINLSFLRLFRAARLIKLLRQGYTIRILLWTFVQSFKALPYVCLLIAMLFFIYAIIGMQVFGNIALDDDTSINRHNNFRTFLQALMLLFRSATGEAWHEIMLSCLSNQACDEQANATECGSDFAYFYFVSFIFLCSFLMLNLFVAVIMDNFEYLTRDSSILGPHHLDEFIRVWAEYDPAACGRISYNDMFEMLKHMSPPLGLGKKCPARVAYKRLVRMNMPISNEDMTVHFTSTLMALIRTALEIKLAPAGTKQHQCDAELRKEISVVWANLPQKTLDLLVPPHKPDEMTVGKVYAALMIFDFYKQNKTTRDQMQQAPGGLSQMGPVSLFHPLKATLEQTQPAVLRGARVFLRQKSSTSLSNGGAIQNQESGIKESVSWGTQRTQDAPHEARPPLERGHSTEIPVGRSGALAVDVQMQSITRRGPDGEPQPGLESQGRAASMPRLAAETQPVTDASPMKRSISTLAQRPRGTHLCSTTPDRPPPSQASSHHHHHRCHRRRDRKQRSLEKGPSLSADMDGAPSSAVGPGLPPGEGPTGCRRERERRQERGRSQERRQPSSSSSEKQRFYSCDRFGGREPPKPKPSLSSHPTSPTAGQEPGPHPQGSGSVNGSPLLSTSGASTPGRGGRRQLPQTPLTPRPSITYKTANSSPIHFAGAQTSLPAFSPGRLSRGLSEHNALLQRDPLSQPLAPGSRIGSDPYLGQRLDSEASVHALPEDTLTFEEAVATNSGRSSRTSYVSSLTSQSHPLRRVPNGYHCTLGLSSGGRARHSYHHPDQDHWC
T4 sequence (Q02410 whole entry): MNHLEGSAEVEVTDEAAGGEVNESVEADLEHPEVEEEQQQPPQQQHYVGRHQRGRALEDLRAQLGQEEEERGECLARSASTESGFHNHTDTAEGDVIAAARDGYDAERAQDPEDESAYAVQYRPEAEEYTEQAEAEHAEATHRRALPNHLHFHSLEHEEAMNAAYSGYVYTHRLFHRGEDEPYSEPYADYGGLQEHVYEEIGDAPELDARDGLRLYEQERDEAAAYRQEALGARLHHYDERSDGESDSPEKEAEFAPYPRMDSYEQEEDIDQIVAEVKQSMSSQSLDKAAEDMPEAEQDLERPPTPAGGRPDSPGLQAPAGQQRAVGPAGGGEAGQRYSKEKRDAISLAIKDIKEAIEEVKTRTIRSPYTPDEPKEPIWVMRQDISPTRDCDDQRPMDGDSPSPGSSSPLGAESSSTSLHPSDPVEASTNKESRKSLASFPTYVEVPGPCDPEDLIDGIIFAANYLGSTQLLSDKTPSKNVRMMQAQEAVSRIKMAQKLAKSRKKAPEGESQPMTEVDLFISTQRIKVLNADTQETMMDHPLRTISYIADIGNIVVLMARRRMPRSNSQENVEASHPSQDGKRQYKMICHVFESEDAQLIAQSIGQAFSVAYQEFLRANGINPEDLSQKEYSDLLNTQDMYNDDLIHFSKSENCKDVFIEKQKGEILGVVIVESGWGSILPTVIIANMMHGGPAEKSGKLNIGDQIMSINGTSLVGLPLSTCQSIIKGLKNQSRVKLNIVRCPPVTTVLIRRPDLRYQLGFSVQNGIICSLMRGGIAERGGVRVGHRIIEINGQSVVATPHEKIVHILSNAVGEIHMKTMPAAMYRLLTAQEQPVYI
Cytochrome P450 2D6, sequence (P10635 whole entry): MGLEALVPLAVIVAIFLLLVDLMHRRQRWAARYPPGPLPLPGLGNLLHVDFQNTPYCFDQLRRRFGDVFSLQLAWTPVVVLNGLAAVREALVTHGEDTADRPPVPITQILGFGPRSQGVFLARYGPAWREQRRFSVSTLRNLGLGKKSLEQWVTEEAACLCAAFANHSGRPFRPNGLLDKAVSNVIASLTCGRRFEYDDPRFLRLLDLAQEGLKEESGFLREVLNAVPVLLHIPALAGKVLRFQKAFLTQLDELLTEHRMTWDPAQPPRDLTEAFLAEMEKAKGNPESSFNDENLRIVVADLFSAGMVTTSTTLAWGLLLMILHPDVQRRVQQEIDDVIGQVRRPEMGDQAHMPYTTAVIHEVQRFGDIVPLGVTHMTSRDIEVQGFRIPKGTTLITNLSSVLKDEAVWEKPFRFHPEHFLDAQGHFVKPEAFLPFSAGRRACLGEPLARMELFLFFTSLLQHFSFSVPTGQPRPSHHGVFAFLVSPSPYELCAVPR
Lysosomal acid glucosylceramidase, sequence (P04062 whole entry): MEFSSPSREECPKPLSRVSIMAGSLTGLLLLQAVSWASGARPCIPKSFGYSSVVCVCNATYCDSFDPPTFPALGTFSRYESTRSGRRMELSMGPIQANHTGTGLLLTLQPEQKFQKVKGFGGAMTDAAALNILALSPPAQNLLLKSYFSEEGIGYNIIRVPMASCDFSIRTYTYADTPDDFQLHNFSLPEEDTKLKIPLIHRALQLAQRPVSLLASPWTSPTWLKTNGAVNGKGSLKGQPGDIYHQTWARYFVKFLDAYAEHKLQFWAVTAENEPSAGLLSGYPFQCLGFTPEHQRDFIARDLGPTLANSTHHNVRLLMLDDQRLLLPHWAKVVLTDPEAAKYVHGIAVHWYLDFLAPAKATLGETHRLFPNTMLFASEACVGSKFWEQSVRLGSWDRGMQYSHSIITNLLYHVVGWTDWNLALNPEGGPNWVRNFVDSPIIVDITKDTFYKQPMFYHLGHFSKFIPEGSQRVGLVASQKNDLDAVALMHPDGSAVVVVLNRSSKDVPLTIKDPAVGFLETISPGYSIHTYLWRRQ

Compound: Nc1sc(-c2ccccc2)cc1-c1nnc(S)n1C1CCCCC1
- EC50 [1]: 24.4 µM (not active)
- EC50 [2]: 22.5 µM (not active)
- EC50 [3]: 30.8 µM (not active)

Compound: N#C/C(=C/c1ccc(N2CCCCCC2)o1)c1ccc(Cl)cc1
- AC50 [8]: 8.91 µM (active)
- CC50 [9]: 16.9 µM (active)
- EC50 [10]: > 60 µM (inconclusive)
- IC50 [11]: 4.77 µM (active)
- AC50 [12]: 20.4 µM (active)
- EC50 [13]: 1.81 µM (active)
- IC50 [14]: > 50 µM (inactive)
- CC50 [15]: > 99 µM (not active)

Compound: Cc1cc(Br)ccc1SCC(=O)OCC(=O)NCc1ccco1
- IC50 [16]: 2.93 µM (active)
- IC50 [17]: 9.37 µM (active)

More lines, main results first:

- IC50 [4]: 13.1 µM (active)
Compound: O=C(O)CN1C(=O)/C(=C\c2cn(CC(=O)N3CCOCC3)c3ccccc23)SC1=S
- EC50 [5]: > 100 µM (active)

- EC50 [6]: > 10 µM (not active)
Compound: CC1CCC(C(=O)NC(C(=O)NCCCN2CCOCC2)C(C)C)CC1 (configuration not stated)

- AC50 [7]: 0.316 µM (inconclusive)
Compound: CC(C)[C@@H]1OC(=O)\C=C/C=C\C=C/C=C\C=C/C[C@@H](O)[C@H](C)[C@@H](O)C[C@H](O)C[C@H](O)C[C@H](O)C[C@H](O)C[C@H](O)C[C@H](O)/C=C\[C@@H]1C

From ChEMBL document CHEMBL1201862, “PubChem BioAssay data set” (2004)
